Laboratory results published in US9518018B2, “3-alkoxy, thioalkyl and amino-4-amino-6-(substituted)picolinates and their use as herbicides” (Dow AgroSciences LLC, priority 2011, dated 2016).

Experiments:
Experiment in all cases: In-water applied herbicidal activity in transplanted paddy rice
Format in all cases: in vivo
[1] = system: MOOVA = Monochoria vaginalis (BURM.f.) C.PRESL ex KUNTH (monochoria)
Experimental: (§1) Weed seeds or nutlets of the desired test plant species were planted in puddled soil (mud) prepared by mixing a non-sterilized mineral soil (28 percent silt, 18 percent clay, and 54 percent sand, with a pH of about 7.3 to 7.8 and an organic matter content of about 1.0 percent) and water at a ratio of 100 kilograms (kg) of soil to 19 liters (L) of water. The prepared mud was dispensed in 250 mL aliquots into 480 mL non-perforated plastic pots with a surface area of 86.59 cm^2 leaving a headspace of 2.5 to 3 cm in each pot. Rice seeds were planted in Sun Gro MetroMix 306 planting mixture, which typically has a pH of 6.0 to 6.8 and an organic matter content of about 30 percent, in plastic plug trays. Seedlings at the second or third leaf stage of growth were transplanted into 650 mL of mud contained in 960 mL non-perforated plastic pots with a surface area of 86.59 cm^2 four days prior to herbicide application. The paddy was created by filling the 2.5 to 3 cm headspace of the pots with water. When required to ensure good germination and healthy plants, a fungicide treatment and/or other chemical or physical treatment was applied. The plants were grown for 4-14 d in a greenhouse with an approximate 14-h photoperiod which was maintained at about 29° C. during the day and 26° C. during the night. Nutrients were added as Osmocote (17:6:10, Nitrogen:Phosphorus:Potassium (N:P:K)+minor nutrients) at 2 grams (g) per cup. Water was added on a regular basis to maintain the paddy flood, and supplemental lighting was provided with overhead metal halide 1000-Watt lamps as necessary. The plants were employed for testing when they reached the second or third true leaf stage. Treatments consisted of compounds 45, 34, and 66. For technical grade compounds, a weighed amount, determined by the highest rate to be tested, was placed in an individual 120 mL glass vial and was dissolved in 20 mL of acetone to obtain concentrated stock solutions. […] The concentrated stock solutions obtained were diluted with 20 mL of an aqueous mixture containing 2.5% Agri-dex crop oil concentrate (v/v). Applications were made by injecting an appropriate amount of the stock solution into the aqueous layer of the paddy. Control plants were treated in the same manner with the solvent blank. All treated plant material received the same concentration of acetone and crop oil concentrate. The treated plants and control plants were placed in a greenhouse as described above and water was added as needed to maintain a paddy flood. After approximately 3 weeks, the condition of the test plants, compared with that of the untreated plants, was determined visually and scored on a scale of 0 to 100 percent where 0 corresponds to no injury and 100 corresponds to complete kill. By applying the well-accepted probit analysis as described by J. Berkson in Journal of the […], 48, 565 (1953) and by D. Finney in “Probit Analysis” Cambridge University Press (1952) or by plotting the mean data and fitting a logarithmic curve to the portion of the data where there was a dose response using Microsoft Excel®, the above data can be used to calculate GR50 and GR90 values, which are defined as growth reduction factors that correspond to the effective dose of herbicide required to kill or control 50 percent or 90 percent, respectively, of a target plant.

[2] = system: ORYSA = Oryza sativa ‘Wells’ (rice)
Experimental: as §1

[3] = system: ORYSA = Oryza sativa ‘M202’ (rice)
Experimental: as §1

[4] = system: ECHCG = Echinochloa crus-galli (L.) P.BEAUV. (barnyardgrass)
Experimental: as §1

[5] = system: SCPJU = Scirpus juncoides ROXB. (Japanese bulrush)
Experimental: as §1

[6] = system: CYPDI = Cyperus difformis L. (small-flower flatsedge)
Experimental: as §1

[7] = Table 7, dose to kill or control 50 percent, 21 days after application
[8] = Table 7, dose to kill or control 90 percent, 21 days after application

Compound: COC(=O)c1nc(-c2ccc(Cl)c(OC)c2F)c(F)c(N)c1OC [Compound 34]
- Mean Visual Injury (%)-21 Days After Application MOOVA ([1]; Table 7, 8.75 g ae/ha): 100%
- Mean Visual Injury (%)-21 Days After Application MOOVA ([1]; Table 7, 17.5 g ae/ha): 100%
- Mean Visual Injury (%)-21 Days After Application MOOVA ([1]; Table 7, 35 g ae/ha): 100%
- Mean Visual Injury (%)-21 Days After Application MOOVA ([1]; Table 7, 70 g ae/ha): 100%
- Mean Visual Injury (%)-21 Days After Application MOOVA ([1]; Table 7, 140 g ae/ha): 100%
- GR50 MOOVA [1, 7]: <8.75 g ae/ha
- GR90 MOOVA [1, 8]: <8.75 g ae/ha
- Mean Visual Injury (%)-21 Days After Application ORYSA ‘Wells’ ([2]; Table 7, 8.75 g ae/ha): 0%
- Mean Visual Injury (%)-21 Days After Application ORYSA ‘Wells’ ([2]; Table 7, 17.5 g ae/ha): 0%
- Mean Visual Injury (%)-21 Days After Application ORYSA ‘Wells’ ([2]; Table 7, 35 g ae/ha): 0%
- Mean Visual Injury (%)-21 Days After Application ORYSA ‘Wells’ ([2]; Table 7, 70 g ae/ha): 0%
- Mean Visual Injury (%)-21 Days After Application ORYSA ‘Wells’ ([2]; Table 7, 140 g ae/ha): 5%
- GR50 ORYSA ‘Wells’ [2, 7]: >140 g ae/ha
- GR90 ORYSA ‘Wells’ [2, 8]: >140 g ae/ha
- Mean Visual Injury (%)-21 Days After Application ORYSA ‘M202’ ([3]; Table 7, 8.75 g ae/ha): 0%
- Mean Visual Injury (%)-21 Days After Application ORYSA ‘M202’ ([3]; Table 7, 17.5 g ae/ha): 0%
- Mean Visual Injury (%)-21 Days After Application ORYSA ‘M202’ ([3]; Table 7, 35 g ae/ha): 0%
- Mean Visual Injury (%)-21 Days After Application ORYSA ‘M202’ ([3]; Table 7, 70 g ae/ha): 7%
- Mean Visual Injury (%)-21 Days After Application ORYSA ‘M202’ ([3]; Table 7, 140 g ae/ha): 8%
- GR50 ORYSA ‘M202’ [3, 7]: >140 g ae/ha
- GR90 ORYSA ‘M202’ [3, 8]: >140 g ae/ha
- Mean Visual Injury (%)-21 Days After Application ECHCG ([4]; Table 7, 8.75 g ae/ha): 0%
- Mean Visual Injury (%)-21 Days After Application ECHCG ([4]; Table 7, 17.5 g ae/ha): 7%
- Mean Visual Injury (%)-21 Days After Application ECHCG ([4]; Table 7, 35 g ae/ha): 90%
- Mean Visual Injury (%)-21 Days After Application ECHCG ([4]; Table 7, 70 g ae/ha): 98%
- Mean Visual Injury (%)-21 Days After Application ECHCG ([4]; Table 7, 140 g ae/ha): 100%
- GR50 ECHCG [4, 7]: 25.4 g ae/ha
- GR90 ECHCG [4, 8]: 52.9 g ae/ha
- Mean Visual Injury (%)-21 Days After Application SCPJU ([5]; Table 7, 8.75 g ae/ha): 67%
- Mean Visual Injury (%)-21 Days After Application SCPJU ([5]; Table 7, 17.5 g ae/ha): 90%
- Mean Visual Injury (%)-21 Days After Application SCPJU ([5]; Table 7, 35 g ae/ha): 100%
- Mean Visual Injury (%)-21 Days After Application SCPJU ([5]; Table 7, 70 g ae/ha): 100%
- Mean Visual Injury (%)-21 Days After Application SCPJU ([5]; Table 7, 140 g ae/ha): 100%
- GR50 SCPJU [5, 7]: <8.75 g ae/ha
- GR90 SCPJU [5, 8]: 21.1 g ae/ha
- Mean Visual Injury (%)-21 Days After Application CYPDI ([6]; Table 7, 8.75 g ae/ha): 100%
- Mean Visual Injury (%)-21 Days After Application CYPDI ([6]; Table 7, 17.5 g ae/ha): 100%
- Mean Visual Injury (%)-21 Days After Application CYPDI ([6]; Table 7, 35 g ae/ha): 100%
- Mean Visual Injury (%)-21 Days After Application CYPDI ([6]; Table 7, 70 g ae/ha): 100%
- Mean Visual Injury (%)-21 Days After Application CYPDI ([6]; Table 7, 140 g ae/ha): 100%
- GR50 CYPDI [6, 7]: <8.75 g ae/ha
- GR90 CYPDI [6, 8]: <8.75 g ae/ha
